Test results as given in PMC6770517, “Insight into the Antifungal Mechanism of Action of Human RNase N-terminus Derived Peptides” (International Journal of Molecular Sciences, 2019).
Values after ≈ are worked out from the molar mass of the structure shown. Where no end group is shown, it is not given here.

What was measured:
[1] = system: C. albicans cytoplasmic membrane; test: Cell membrane permeabilization (Sytox Green uptake); type: cell-based, Candida albicans (ATCC 90028); conditions: mean ± SEM; for Membrane Permeabilization Max. Perm.: Sytox Green fluorescence, PBS, 50 min; for Membrane Permeabilization Perm.: maximum at final incubation time (50 min), referred to positive control 10 % Triton X-100, Sytox Green
Description: Membrane permeabilization was evaluated by using the Sytox® Green uptake assay. Sytox® Green is a cationic cyanine dye which is unable to cross the membrane. When cells’ plasma membrane integrity is compromised, the dye enters into the cell, binding to DNA and triggering a large increase of the fluorescence signal. For Sytox® Green assays, C. albicans cells were grown to mid-exponential growth phase at 30 °C and then centrifuged, washed, and resuspended in PBS. Cell suspensions in PBS (~2 × 10^6 cells/mL) were incubated with 1 μM Sytox® Green for 15 min in the dark prior to the influx assay. At 2 to 4 min after initiating data collection, proteins at 1 and 5 μM final concentration were added to the cell suspension, and the increase in Sytox® Green fluorescence was measured (excitation wavelength at 485 nm and emission at 520 nm) for 50 min in a Cary Eclipse spectrofluorimeter. Fungal cell lysis with 10% Triton X-100 was taken as the maximum fluorescence reference value.

[2] = system: C. albicans; test: Minimum fungicidal concentration by CFU counting; type: cell-based, Candida albicans (ATCC 90028); conditions: for MFC100, PBS / MFC100, Sabouraud Broth: C. albicans ~2 × 10^5 cells/mL, CFU counting, peptides 20 to 0.1 µM, mean ± SEM, two independent experiments in triplicate; for MFC100, PBS: 4 h at 30 °C in PBS; for MFC100, Sabouraud Broth: 4 h at 30 °C in Sabouraud nutrient broth
Description: C. albicans was cultured overnight in Sabouraud Dextrose broth at 30 °C, sub-cultured the next day in fresh media and grown to an optical density of 0.4 at 592 nm (mid log-phase). Cells were washed twice and diluted to ~2 × 10^5 cells/mL. Peptides serially diluted were added to the cells from 20 to 0.1 µM final concentration. C. albicans was incubated at 30 °C during 4h in Sabouraud nutrient broth or PBS. Following, the samples were plated onto Sabouraud Petri dishes and incubated at 30 °C overnight. Antifungal activity was expressed as the MFC, defined as the lowest peptide concentration required for more than 99% of microorganism killing. MFC of each peptide was determined from two independent experiments performed in triplicate for each concentration.

[3] = system: C. albicans; test: Cell survival assay (Live/Dead kit); type: cell-based, Candida albicans (ATCC 90028); conditions: survival percentage at final incubation time (120 min), mean ± SEM
Description: C. albicans viability assay was performed using the Live⁄Dead® microbial viability kit as previously described. Candida strain was grown at 30 °C to ~5 × 10^6 cells/mL, centrifuged at 5000× g for 5 min and resuspended in a 0.85% NaCl solution, in accordance with the manufacturer instructions. C. albicans cell culture was stained using a SYTO®9/propidium iodide 1:1 mixture. SYTO9/propidium iodide staining allowed us to monitor both the candidal viability in planktonic cell cultures and within the biofilm, as the SYTO9 dye is able to permeate the cell membrane and stain the nucleic acid of viable cells; whereas, when the cell membrane is damaged, propidium iodide can diffuse into the cell and displace SYTO9. The method allows the labelling of intact viable cells and membrane compromised cells, which are labelled in green and red respectively, referred to as live and dead cells. The viability kinetics were monitored using a Cary Eclipse Spectrofluorimeter (Varian Inc., Palo Alto, CA, USA). Cell viability profiles were registered after adding from 1 to 5 µM of final peptide concentration. To calculate the cell viability, the fluorescence in the range of 510–540 nm and 620–650 nm were integrated to obtain the SYTO®9 (live cell) and the propidium iodide (dead cell) signals respectively. Then, the percentage of live bacteria was represented as a function of time.

[4] = system: C. albicans cells; test: Minimal agglutination activity (MAC); type: cell-based, Candida albicans (ATCC 90028); conditions: for MAC (minimal agglutination concentration): C. albicans in PBS, 1 h at 30 °C, peptides 0.01 to 20 μM, visual inspection, mean ± SEM, three replicates of two independent experiments
Description: C. albicans cells were grown at 30 °C to an OD592 of 1.0, diluted 10 times, centrifuged at 5000× g for 2 min, and resuspended in 1× PBS. An aliquot of 100 μL of the cellular suspension was treated with increasing peptide concentrations (from 0.01 to 20 μM) and incubated at 30 °C for 1 h. The aggregation behavior was observed by visual inspection, and the agglutinating activity is expressed as the minimum agglutinating concentration of the sample tested, as previously described. Images were taken using a 50× stereoscope microscope.

[5] = system: C. albicans planktonic cells; type: cell-based, Candida albicans (ATCC 90028); conditions: 4 h
Description: Cell viability of C. albicans was assayed using the BacTiter-Glo™ Microbial Cell Viability kit (Promega), which measures the number of viable cells, by ATP quantification. ATP, as an indicator of metabolically active cells, is indirectly measured by a coupled luminescence detection assay. The luminescent signal is proportional to the amount of ATP required for the conversion of luciferin into oxyluciferin in the presence of luciferase. An overnight culture of C. albicans was used to inoculate fresh Sabouraud liquid culture, and logarithmic phase culture was grown to an OD592 of 0.2. RNase derived N-terminal peptides were added to 0.1 mL of cell culture at a final concentration from 0.025 to 20 μM. The C. albicans viability was followed after 4 h of incubation at 30 °C. 50 µL of incubation culture were mixed with 50 µL of BacTiter-Glo^TM reagent in a microtiter plate following the manufacturer instructions and incubated at room temperature for 10 min. Luminiscence was read on a Victor3 plate reader (PerkinElmer, Waltham, MA, USA) with a 1-s integration time. IC50 values were calculated by fitting the data to a dose-response curve.

[6] = system: C. albicans cytoplasmic membrane; test: Cell membrane depolarization assay (DiSC3); type: cell-based, Candida albicans (ATCC 90028); conditions: mean ± SEM; for Membrane Depolarization ED50: DiSC3 probe, peptide 0.1 to 5 µM, 50 min, 20 °C, Hepes-KOH pH 7.2; for Membrane Depolarization Depolmax: maximum fluorescence value at final incubation time with 2 µM peptide, DiSC3
Description: Membrane depolarization was assayed by monitoring the DiSC3 fluorescence intensity change in response to changes in transmembrane potential as described previously. C. albicans cells were grown at 30 °C to the mid-exponential (OD592~0.4) and resuspended in 5 mM Hepes-KOH, 20 mM glucose and 100 mM KCl at pH 7.2. DiSC3 was added to a final concentration of 0.4 µM. Changes in the fluorescence for alteration of the cell plasma membrane potential were continuously monitored at 20 °C at an excitation wavelength of 620 nm and an emission wavelength of 670 nm. When the dye uptake was maximal, as indicated by a stable reduction in the fluorescence as a result of quenching of the accumulated dye in the membrane interior, protein in 5 mM Hepes-KOH buffer at pH 7.2 was added at a final peptide concentration from 1 to 5 μM and incubated for 50 min, to calculate the ED50 concentration. Maximum depolarization was calculated when the fluorescence signal was fully stabilized, and the depolarization percentage was calculated taking Triton X-100 at 10% as a maximum reference value. The time required to reach a stabilized maximum fluorescence reading was recorded for each condition, and the time required to achieve half of total membrane depolarization was estimated from the nonlinear regression curve. All conditions were assayed in duplicate.

[7] = in vitro; type: cell-based; conditions: human
Description: The peptide cytoxicity was evaluated using the human monocytic THP1 cell line. The assay was performed in 96-well cell culture flat-bottom plates (Costar; Appleton Woods) in triplicate. THP-1 cultures were induced to macrophages by adding 2 ng/mL of colony-stimulating factor (R&D Systems, Germany). Peptides were serially diluted from 50 to 0.1 µM and added to 5 × 10^5 cells/mL. After 48 h of incubation, the cells were washed twice with 1× PBS, and fresh RPMI-1640 complete medium was added. Plates were then treated with 30 μL of a freshly prepared 0.01% resazurin solution and incubated overnight at 37 °C. The following day the change in color was observed and the fluorescence intensity was measured (λex560 nm, λem590 nm). The 50% growth inhibitory concentration (GIC50) was determined based on the resazurin fluorescence signal.

[8] = system: C. albicans; conditions: as previously reported; cited from earlier work

QDGMYQRFLRQHVHPEETGGSDRYSNLMMQRRKMTLYHSKRFNTFIH-NH2 [RN4]
Membrane Permeabilization Max. Perm. [1]: 117 ± 2 AU
Membrane Permeabilization Perm. [1]: 38.7 ± 0.1%
MFC100, PBS [2]: 3.75 ± 0.20 µM
MFC100, Sabouraud Broth [2]: 4.00 ± 0.50 µM
Cell Survival [3]: 65 ± 10%
MAC (minimal agglutination concentration) [4]: 0.40 ± 0.10 µM
IC50 [5]: 1800 ± 300 nM
Membrane Depolarization ED50 [6]: 3580 ± 1600 nM
Membrane Depolarization Depolmax [6]: 76.2 ± 4.8 AU
IC50 at 48 h [7]: > 50000 nM

RPPQFTRAQWFAIQHISLNPPRSTIAMRAINNYRWRSKNQNTFLR-NH2 [RN3]
IC50 [5]: 220 ± 50 nM
IC50 at 48 h [7]: > 50000 nM

KESRAKKFQRQHMDSDSSPSSSSTYSNQMMRRRNMTQGRSKPVNTFVH-NH2 [RN1]
Membrane Permeabilization Max. Perm. [1]: 26.1 ± 0.4 AU
Membrane Permeabilization Perm. [1]: 8.3 ± 0.4%
MFC100, PBS [2]: 3.75 ± 0.30 µM
MFC100, Sabouraud Broth [2]: 3.75 ± 0.50 µM
Cell Survival [3]: 67 ± 1%
MAC (minimal agglutination concentration) [4]: 1.80 ± 0.40 µM
IC50 [5]: 2100 ± 200 nM
Membrane Depolarization ED50 [6]: 4630 ± 700 nM
Membrane Depolarization Depolmax [6]: 65.2 ± 4.6 AU
IC50 at 48 h [7]: > 50000 nM

RPRGMTSSQWFRIQHMQPSPQASNSAMRNINRHTRRSRDLNTFLH-NH2 [RN7R]
IC50 [5]: 1620 ± 320 nM
IC50 at 48 h [7]: > 50000 nM

C[C@@H]1[C@H](O)[C@@H](C)/C=C/C=C/C=C/C=C/C=C/C=C/C=C/[C@H](O[C@@H]2O[C@H](C)[C@@H](O)[C@H](N)[C@@H]2O)C[C@@H]2O[C@](O)(C[C@@H](O)C[C@@H](O)[C@H](O)CC[C@@H](O)C[C@@H](O)CC(=O)O[C@H]1C)C[C@H](O)[C@H]2C(=O)O [amphotericin B]
MFC taken as internal reference [8]: 0.5 µM (≈ 0.462 µg/mL)

QDNSRYTHFLTQHYDAKPQGRDDRYSESIMRRRGLTSPSKDINTFIH-NH2 [RN5]
Membrane Permeabilization Max. Perm. [1]: 66.5 ± 0.6 AU
Membrane Permeabilization Perm. [1]: 21.8 ± 0.4%
MFC100, PBS [2]: >20 µM
MFC100, Sabouraud Broth [2]: >20 µM
MFC ([2]; medium not specified): inactive
Cell Survival [3]: 39 ± 0.5%
MAC (minimal agglutination concentration) [4]: 1.80 ± 0.40 µM
IC50 [5]: > 20000 nM
Membrane Depolarization ED50 [6]: 1510 ± 100 nM
Membrane Depolarization Depolmax [6]: 39.1 ± 5.1 AU
IC50 at 48 h [7]: > 50000 nM

KPPQFTWAQWFETQHINMTSQQSTNAMQVINNYQRRSKNQNTFLL-NH2 [RN2]
IC50 [5]: > 20000 nM
IC50 at 48 h [7]: > 50000 nM

KPKDMTSSQWFKTQHVQPSPQASNSAMSIINKYTERSKDLNTFLH-NH2 [RN8]
IC50 [5]: > 10000 nM
IC50 at 48 h [7]: > 50000 nM

colistin
MFC taken as internal reference [8]: 0.25 µM

KPKGMTSSQWFKIQHMQPSPQASNSAMKNINKHTKRSKDLNTFLH-NH2 [RN7]
IC50 [5]: 450 ± 100 nM
IC50 at 48 h [7]: > 50000 nM

WPKRLTKAHWFEIQHIQPSPLQSNRAMSGINNYTQHSKHQNTFLH-NH2 [RN6]
IC50 [5]: 1800 ± 200 nM
IC50 at 48 h [7]: > 50000 nM

KPPQFTKAQWFAIQHISLNPPKSTIAMKAINNYKWKSKNQNTFLK-NH2 [RN3K]
IC50 [5]: 2080 ± 270 nM
IC50 at 48 h [7]: > 50000 nM

B1: hRNase7: human ribonuclease 7 of the RNaseA superfamily, parental protein of RN7 (protein, UniProt Q9H1E1 29-156, looked up)
Ribonuclease 7: KPKGMTSSQWFKIQHMQPSPQACNSAMKNINKHTKRCKDLNTFLHEPFSSVAATCQTPKIACKNGDKNCHQSHGAVSLTMCKLTSGKHPNCRYKEKRQNKSYVVACKPPQKKDSQQFHLVPVHLDRVL
agglutination of C. albicans by the parental hRNase ([4]; protein tested up to 20 μM): not
